Source: patent publication US20050004000A1, “Oral absorbed drugs” (priority 2001, published 2005)
Read-outs that look alike come from different tables or passages of the source.

What was measured:
[1] = tested on: luteinizing hormone (LH) in circulating blood; assay: Effect of GnRH analogs on LH levels in blood of rats (RIA); format: in vivo, rat; parameters: LH 180 min: unit not given here
Protocol: The experiment was carried out with 55 female Wistar 8-week old rates, equally distributed into one of the eleven test groups as detailed in the following Table 3:
The compounds were administered either orally (PO) or intraperitoneally (IP) in a molar concentration of 0.4 nmol/rat (equivalent to 0.5 μg/rat of D-Lys^6-GnRH and to 0.6 μg/rat of Fms- or Fmoc-D-Lys^6-GnRH), or of 40 nmol/rat (equivalent in 50 μg/rat of D-Lys^6-GnRH and to 60 μg/rat of Fms- or Fmoc-D-Lys^6-GnRH), in 0.5 ml PBS. Ninety and 180 minutes after administration of the appropriate treatment, blood samples were collected (1 ml), the serum was separated, and the detection of LH levels was carried out by radioimmunoassay (RIA) as previously described (Rahimipour, S., et Al. J. Med. Chem. 2001, 44, 3645-3652).

[2] = tested on: acetylcholine-induced abdominal constriction; assay: Acetylcholine-induced abdominal constriction in mice (antinociceptive activity); format: in vivo; conditions: for activity after SC or PO administration: Fmoc-Ala 25 mg/kg; for activity after SC or PO administration / inhibition of acetylcholine-induced abdominal constriction, dose response (FIG. 3): Met-enkephalin 50 mg/kg; for antinociceptive activity in the mouse: comparable doses; for activity after SC or PO administration / antinociceptive activity in the mouse: SC or PO; for inhibition of acetylcholine-induced abdominal constriction, dose response (FIG. 3): 30 minutes after SC, Fmoc-Met-enkephalin 50 and 25 mg/kg, p<0.05
From the text: The method used in the experiments herein for evaluating the antinociceptive properties of Fmoc-Met-enkephalin is a standard method for evaluating compounds having analgesic activity such as non-steroidal anti-inflammatory agents, opioids, and other analgesics, and consists in administering acetylcholine I.P. to mice, treating the mice with the test compound and evaluating the inhibition of abdominal constriction induced by the acetylcholine.
Thus, 120 healthy CD-1, Swiss derived, albino male mice (obtained from Charles River Breeding Labs, Wilmington, Mass.) were weighed, examined for health and equally distributed into one of the 12 test groups shown in Table 1.
SC administration was carried out with a standard syrine and needle and given in a volume of 10 ml per kg. Oral administration was performed using a standard curved oval gavage needle and given in a volume of 10 ml per kg. Thirty minutes after administration of the appropriate treatment, acetylcholine (5.5 mg/kg) was injected I.P. The mice were then placed in large plastic boxes and observed for the occurrence of a single abdominal constriction (defined as a wave of construction and elongation passing caudally along the abdominal wall, accompanied by a twisting of the trunk and followed by extension of the hind limbs). […] Acetylcholine-induced abdominal constriction was repeated again at approximately 120 minutes after test compound administration.
Observations included gross evaluation of the skin and fur, eyes and mucous membranes, respiratory, circulatory, autonomic and central nervous system, somatomotor activity and behavioral patterns. Particular attention was directed to observation of tremors, convulsions, salivation, diarrhea, sleep and coma. A non-parametric analysis of quantal data (Fisher exact test) was used to determine statistical significance of results.

[3] = tested on: Candida albicans; conditions: 20 IU; Agar-RPMI plates confluent with Candida albicans, 48 hr at 30° C.; cited from earlier work
[4] = tested on: F10.9 melanoma cell line; assay: Inhibition of proliferation of cancer cells in vitro, crystal violet staining; format: cell-based; conditions: F10.9 melanoma cells, 96 hours, crystal violet staining (FIG. 2); read-out: IC50 (the concentration at which cell growth is inhibited by 50%)
Protocol: The efficacy of native Dox and FMS-Dox on the inhibition of proliferation of cancer cells was tested in vitro with F10.9 melanoma cell line. On day (−1) cells, were seeded in a 24-well plate (5×10^3 cells/ml/well). On day (0), cells were incubated with Dox and FMS-Dox at logarithmic dilutions from 100 μM to 0.001 μM. Survival of cells at 96 hours was determined, using the crystal violet staining method. Optical density (OD) was measured at 620 nm in an ELISA reader. The OD reading was correlated to % viable cells. When the cells were untreated the absorbance was at a maximum. IC50 (the concentration at which cell growth is inhibited by 50%) was determined. The results in FIG. 2 show IC50 values of 0.03 μM and 0.09 μM for native Dox and FMS-Dox, respectively. […] The was confirmed by HPLC analysis whereby the compound found in the growing cell medium after 96 hr corresponded to native doxorubicin.

[5] = rats; Dox 10 μg/g, Fms-Dox 15 μg/g I.P.
Protocol: (§1) The experiment was carried out with a single mice or rat per compound (per metabolic cage) and it was repeated 7 times with rats and twice with mice using the protocol below. The fluorescent feature of doxorubicin enables the observation of its presence in the urine following different modes of administration.
Urine was collected several times after administration and the fluorescence emission was measured by a fluorometer. The urine collected from the untreated groups was used as a blank.
Urine was collected at 1.25, 2.5, 4 and 6 hours after administration and fluorescence intensity was measured in a fluorometer (SPECTRAmax and GEMINI of Molecular Devices Sunnyvale Fluorometer, CA, USA). Since doxorubicin is a fluorescent material, when it absorbs light energy at a wavelength of 488 nm (excitation), it undergoes an electronic state change and instantaneously emits light at 595 nm (emission). The Relative Fluorescence Units (RFU) shown in FIG. 1 indicate the peaks of light emitted at 595 nm resulting from the absorption of Dox at 488 nm.

[6] = Protocol: as §1
The experiments were repeated with mice.

[7] = tested on: Escherichia coli (E. coli strain N-4156-W.T); assay: Antibacterial potency: E. coli replication, absorbance at 600 nm; format: cell-based; conditions: 37° C., L.B. medium, O.D. 600 nm
Protocol: A suspension of Escherichia coli (E. coli strain N-4156-W.T, 1% V/V in L.B. medium) is divided into plastic tubes (0.5 ml per tube) and incubated in a shaking water bath at 37° C., in either the absence or the presence of increasing concentrations of gentamicin (0.02-50 μM) and increasing concentrations of (Fms)3-gentamicin (0.02-50 μM). E. coli replication is evaluated by measuring the absorbance at 600 nm. Incubation is terminated when O.D600 nm in the tubes containing no gentamicin reaches a value of 0.6±0.1. Under our assay conditions, native gentamicin inhibited half-maximally E. coli replication at a concentration of 0.22±0.02 μM (0.1 μg/ml).

[8] = 0.4 nmol/rat (0.5 or 0.6 μg/rat) IP
[9] = 0.4 nmol/rat (0.5 or 0.6 μg/rat) PO
[10] = 40 nmol/rat (50 or 60 μg/rat) PO

## 5-oxo-Pro-His-Trp-Ser-Tyr-(Fmoc)D-Lys-Leu-Arg-Pro-Gly-NH2 [Fmoc-D-Lys^6-GnRH]
[1]; [8]
  LH 90 min: 50 ng/mL
  LH 180 min: 17
[1]; [9]
  LH 90 min: 0 ng/mL
  LH 180 min: 0
[1]; [10]
  LH 90 min: 0 ng/mL
  LH 180 min: 0
[1]
  activity when administered IP: active

## 5-oxo-Pro-His-Trp-Ser-Tyr-(Fms)D-Lys-Leu-Arg-Pro-Gly-NH2 [Fms-D-Lys^6-GnRH]
[1]; [8]
  LH 90 min: 80 ng/mL
  LH 180 min: 25
[1]; [9]
  LH 90 min: 0.4 ng/mL
  LH 180 min: 0
[1]; [10]
  LH 90 min: 80 ng/mL
  LH 180 min: 35
[1]
  activity when administered IP: active
[1]; oral, 90 and 180 min after administration
  effect of oral administration on LH levels in the blood circulation: elevation of the LH levels

## C[C@H](NC(=O)OCC1c2ccccc2-c2ccccc21)C(=O)O [Fmoc-Ala, reference compound]
[2]; 25 mg/kg PO, 30 minutes
  # mice abdominal construction: 10/10
[2]; 25 mg/kg PO, 120 minutes
  # mice abdominal construction: 8/10
  % inhibition: 20%
[2]; 25 mg/kg SC, 30 minutes
  # mice abdominal construction: 10/10
[2]; 25 mg/kg SC, 120 minutes
  # mice abdominal construction: 10/10
[2]
  activity after SC or PO administration: not active
  antinociceptive activity in the mouse: neither Met-enkephalin nor Fmoc-Ala is active

## C[C@@H]1[C@H](O)[C@@H](C)/C=C/C=C/C=C/C=C/C=C/C=C/C=C/[C@H](O[C@@H]2O[C@H](C)[C@@H](O)[C@H](N)[C@@H]2O)C[C@@H]2O[C@](O)(C[C@@H](O)C[C@@H](O)[C@H](O)CC[C@@H](O)C[C@@H](O)CC(=O)O[C@H]1C)C[C@H](O)[C@H]2C(=O)O [native Amphotericin B, Amphotericin B]
[3]
  clear zone diameter: 1.5 cm

## COc1cccc2c1C(=O)c1c(O)c3c(c(O)c1C2=O)C[C@@](O)(C(=O)CO)C[C@@H]3O[C@H]1C[C@H](N)[C@H](O)[C@H](C)O1 [native Dox, Doxorubicin]
[4]
  IC50: 30 nM
[5]
  absorption following I.P. administration (urine fluorescence): absorbed
[6]; mice, I.P.
  absorption following I.P. administration (urine fluorescence): absorbed
[6]; mouse, in vivo, po
  oral absorption (urine fluorescence): orally nonabsorbed

## (X1)Tyr-Gly-Gly-Phe-Met [Fmoc-Met-Enk]
[2]; 6.25 mg/kg SC, 30 minutes
  # mice abdominal construction: 9/10
  % inhibition: 10%
[2]; 6.25 mg/kg SC, 120 minutes
  # mice abdominal construction: 8/10
  % inhibition: 20%
[2]; 12.5 mg/kg PO, 30 minutes
  # mice abdominal construction: 6/10
  % inhibition: 40%
[2]; 12.5 mg/kg PO, 120 minutes
  # mice abdominal construction: 10/10
[2]; 12.5 mg/kg SC, 30 minutes
  # mice abdominal construction: 7/10
  % inhibition: 30%
[2]; 12.5 mg/kg SC, 120 minutes
  # mice abdominal construction: 8/10
  % inhibition: 20%
[2]; 25 mg/kg PO, 30 minutes
  # mice abdominal construction: 6/10
  % inhibition: 40%
[2]; 25 mg/kg PO, 120 minutes
  # mice abdominal construction: 10/10
[2]; 25 mg/kg SC, 30 minutes
  # mice abdominal construction: 6/10
  % inhibition: 40%
[2]; 25 mg/kg SC, 120 minutes
  # mice abdominal construction: 6/10
  % inhibition: 40%
  activity at 120 minutes after drug administration: active
[2]; 50 mg/kg PO, 30 minutes
  # mice abdominal construction: 8/10
  % inhibition: 20%
[2]; 50 mg/kg PO, 120 minutes
  # mice abdominal construction: 6/10
  % inhibition: 40%
[2]; 50 mg/kg SC, 30 minutes
  # mice abdominal construction: 5/10
  % inhibition: 50%
[2]; 50 mg/kg SC, 120 minutes
  # mice abdominal construction: 9/10
  % inhibition: 10%
[2]; 50 and 25 mg/kg SC and 25 and 12.5 mg/kg PO, 30 minutes
  inhibition of acetylcholine-induced abdominal constriction (statistical significance): statistically significant inhibition
[2]
  inhibition of acetylcholine-induced abdominal constriction, dose response (FIG. 3): statistically significant
  antinociceptive activity in the mouse: significant antinociceptive activity
[2]; mice, during the experimental period
  signs of CNS depression or sedation: did not show signs of CNS depression or sedation
[2]; oral administration, any dose, 120 minutes
  statistically significant activity compared to Fmoc-Ala: did not show statistically significant activity
[2]; orally, 25 and 12.5 mg/kg after 30 minutes and 50 mg/kg after 120 minutes
  inhibition of acetylcholine-induced abdominal constriction after oral administration (FIG. 4): statistically significant inhibition

## Tyr-Gly-Gly-Phe-Met [Met-Enk, reference compound]
[2]; 50 mg/kg PO, 30 minutes
  # mice abdominal construction: 9/10
  % inhibition: 10%
[2]; 50 mg/kg PO, 120 minutes
  # mice abdominal construction: 9/10
  % inhibition: 10%
[2]; 50 mg/kg SC, 30 minutes
  # mice abdominal construction: 8/10
  % inhibition: 20%
[2]; 50 mg/kg SC, 120 minutes
  # mice abdominal construction: 10/10
[2]
  inhibition of acetylcholine-induced abdominal constriction, dose response (FIG. 3): not significantly active
  activity after SC or PO administration: not active
  antinociceptive activity in the mouse: neither Met-enkephalin nor Fmoc-Ala is active

## gentamicin [native gentamicin]
[7]
  concentration inhibiting half-maximally E. coli replication: 0.1 µg/mL
[7]; read-out: concentration inhibiting half-maximally E. coli replication
  IC50: 220 ± 20 nM
